Measured values from ChEMBL document CHEMBL1122998, “New antihistaminic theophylline or theobromine derivatives” (1985).

How the values were obtained:
[1] = system: Cavia porcellus; assay: Percentage decrease in bronchodilator activity against serotonin-induced bronchospasm reaction in guinea pig by intraveneous administration at dose 250 ug/kg; format: functional
[2] = system: Cavia porcellus; assay: Percent decrease in bronchodilator activity against acetylcholine-induced bronchospasm reaction in guinea pig by intraveneous administration at dose 250 ug/kg; format: functional
[3] = system: Cavia porcellus; assay: Percent decrease in bronchodilator activity against histamine-induced bronchospasm reaction in guinea pig by intraveneous administration at dose 10.5 ug/kg
[4] = system: Rattus norvegicus; assay: Percent decrease in antiallergic activity by antigen/antibody reaction assay in rat by oral administration at a dose of 10 mg/kg; format: functional
[5] = system: Rattus norvegicus; assay: Percentage decrease in antiallergic activity against cutaneous reaction to histamine in rat, by oral administration at a dose of 10 mg/kg; format: functional

SMILES | Decrease [1] | Decrease [2] | Decrease [3] | Decrease [4] | Decrease [5]
COc1ccc(SCCCN2CCN(CCCn3cnc4c3c(=O)n(C)c(=O)n4C)CC2)cc1 | 0% | 0% | 53% | – | –
CC(C(=O)N1CCN(CCCSc2ccccc2)CC1)n1cnc2c1c(=O)n(C)c(=O)n2C (stereo not drawn) | 0% | 4% | 3% | 5% | 6%
Cc1ccc(SCCCN2CCN(CC(O)Cn3c(=O)c4c(ncn4C)n(C)c3=O)CC2)cc1 (stereo not drawn) | 42% | 29% | 10% | 11% | 4%
Cc1cc(OCCCN2CCN(CC(O)Cn3c(=O)c4c(ncn4C)n(C)c3=O)CC2)cc(C)c1Cl (stereo not drawn) | 53% | 0% | 2% | 8% | 8%
Cn1c(=O)c2c(ncn2CC(O)CN2CCN(CCCCSc3ccc(Cl)cc3)CC2)n(C)c1=O (stereo not drawn) | 0% | 0% | 0% | 0% | 0%
COc1cc(OCCCN2CCN(CCCn3cnc4c3c(=O)n(C)c(=O)n4C)CC2)cc(OC)c1OC | 0% | 0% | 0% | – | –
Cn1c(=O)c2c(ncn2CC(O)CN2CCN(CCCOc3ccc(Cl)cc3)CC2)n(C)c1=O (stereo not drawn) | 0% | 0% | 19% | 22% | 44%
Cn1cnc2c1c(=O)n(CCCN1CCN(CCCOc3ccc(Cl)cc3)CC1)c(=O)n2C | 30% | 18% | 14% | 13% | 12.5%
Cn1c(=O)c2c(ncn2CC(O)CN2CCN(CCCOc3ccccc3)CC2)n(C)c1=O (stereo not drawn) | 43% | 23% | 87% | 94% | 78%
Cn1c(=O)c2c(ncn2CCC(O)CCN2CCN(CCCSc3ccccc3)CC2)n(C)c1=O (stereo not drawn) | 36% | 20% | 35% | 70% | 38%
Cn1c(=O)c2c(ncn2CC(O)CN2CCCN(CCCSc3ccccc3)CC2)n(C)c1=O (stereo not drawn) | 0% | 0% | 74% | 0% | 4%
Cn1c(=O)c2c(ncn2CCCN2CCN(CCCCSc3ccccc3)CC2)n(C)c1=O | 24% | 34% | 47% | 0% | 0%
COc1ccc(OCCCN2CCN(CC(O)Cn3cnc4c3c(=O)n(C)c(=O)n4C)CC2)cc1 (stereo not drawn) | 0% | 0% | 27% | 0% | 0%
Cn1cnc2c1c(=O)n(CCCN1CCN(CCCSc3ccccc3)CC1)c(=O)n2C | 25% | 10% | 56% | 15% | 31.5%
Cn1c(=O)c2c(ncn2CCCN2CCN(CC(O)CSc3ccccc3)CC2)n(C)c1=O (stereo not drawn) | 0% | 0% | 88% | 0% | 0%
Cn1c(=O)c2c(ncn2CC(O)CN2CCN(CCCSc3ccc(Cl)cc3)CC2)n(C)c1=O (stereo not drawn) | 0% | 0% | 24% | 35% | 67%
Cn1cnc2c1c(=O)n(CC(O)CN1CCN(CCCOc3ccc(Cl)cc3)CC1)c(=O)n2C (stereo not drawn) | 11% | 14% | 19% | 23% | 24%
Cn1c(=O)c2c(ncn2CC(O)CN2CCN(CCOc3ccccc3)CC2)n(C)c1=O (stereo not drawn) | 21% | 0% | 76% | 59% | 56%
Cn1c(=O)c2c(ncn2C/C=C/CN2CCN(CCCSc3ccccc3)CC2)n(C)c1=O | 20% | 0% | 8% | 8% | 4%
Cn1cnc2c1c(=O)n(CCCN1CCN(CC(O)CSc3ccccc3)CC1)c(=O)n2C (stereo not drawn) | 3% | 2% | 25% | 0% | 0%
Cc1ccc(SCCCN2CCN(CCCn3cnc4c3c(=O)n(C)c(=O)n4C)CC2)cc1 | 24% | 35% | 15% | 0% | 0%
CN(C)CCC(c1ccc(Cl)cc1)c1ccccn1 (stereo not drawn) [CHLORPHENIRAMINE] | 0% | – | 62% | 0% | 15%
CN1CCC(=C2c3ccccc3CC(=O)c3sccc32)CC1 [KETOTIFEN] | – | – | 10% | 64% | 90%
